Results published in PMC12851007 (Angewandte Chemie (International Ed. in English), 2025).
Where a SMILES comes first, the peptide text is derived from it.

Test: CF dye efflux assay, EYPC vesicles
Assay type: biochemical
Settings: 97 mM NaCl, pH 7.5, 25 °C, n = 1; for Y30µM, membrane activity, CF assay: 30 µM peptide, 25 µM EYPC⸧CF-LUVs (inside 50 mM CF) in 10 mM Hepes, fluorescence λexc 492/λem 517 nm, peptide at 60 s, TX-100 at 600 s, fractional activity
Excerpt: Time-dep endent fluores cence intensit y traces, I (t), were subsequentl y normalized to fractional intensities, If(t), using equation (1). Therein, I 0 is the intensity just before addition of peptide and I ∞ is the constant intensit y after addition of the calibration cockt ail.
IIf (tt ) = II (tt )−II0II∞ − II0 (1)
The concentration-dependent fractional intensities just before the addition of the calibration cocktail, If, were then normalized to fractional membrane activities, Y, using equation (2).
Therein, If,0 is the fractional intensit y just before addition of the calibration cocktail in absence of peptide and I f,∞ is the constant fractional intensity after addition of the calibration cocktail.
YY = IIf − IIf,0IIf,∞ − IIf,0 (2)
The fractional membrane activities, Y, were subsequently plotted against the peptide concentration, c, and analysed using the Hill equation (3) to obtain the effective molar concentration, EC50, and the Hill coefficient, n. Y0 and Y ma x are the fractional membrane activities in absen ce o f p eptide and at max imal peptide concent rations. For peptides with too little activity to determine Y ma x ex perimentall y, Y max was fixed at 1.0 during fitting.
YY = YY0 + YYmax − YY0nn (3)
Vesicle preparation. 100 µ L of a solution of 25 mg/ml of POPC in chloroform or 200 µ L of a solution of 25 mg/ml of EYPC in chloroform was purged with a stream of nitrogen and dried overnight under high vacuum. The thin lipid film was reh ydrated with 1ml of reh yd ration buffer (= inside buffer, see Table S3 ) b y agitation at room temperature for 30 min and then subjected to 5 freeze- thaw cycles (freezing in liquid nitrogen and thawing at 40 °C).
Subsequently, the liposome suspension was extruded ≥ 15 times through a polycarbonate membrane (pore size 100 nm). Extravesicular components were then removed by size exclusion chromatography using a 1.5 × 12 cm polyprop ylene column (Bio- Rad, German y) with 1.0 g Sephad ex G-50 (medium) as a stationa r y ph ase and the resp ectiv e outside buffer for […]
Ta b l e S 3. Combinations of inside and outside buffer for CF -LUVs.
No. Lipid Inside buffer = rehydration buffer Outside buffer
(1) EYPC 10 mM Hepes, 50 mM CF, pH 7.5 10 mM Hepes, 97 mM NaCl, pH 7.5
(2) POPC 10 mM Hepes, 50 mM CF, pH 7.5 10 mM Hepes, 97 mM NaCl, pH 7.5
(3) POPC 10 mM Hepes, 50 mM CF, pH 7.5 10 mM Hepes, 175 mM glucose, pH 7.5 [a] [a] Glucose b uffers (183 mOsm/L at 25 °C) were used within one week after preparation.
Vesicle quality control. The size distribution of the liposomes was confirmed by DLS to be unimodal and avera ge ve sicles diameters wer e in the ran ge from 115 to 130 nm. The final lipid content in the liposome s uspension after prep ar ation and sep aration w as det ermined b y NMR. CF vesicles are comparabl y leak y and cont ain minor amounts of ex travesi cular CF after a f ew days. When the fluores cence chan ge after vesicl e lys is b y addition of 20 µ L 1.6% (wt/vol) TX-100 was less than a factor of four, the vesicle suspension was no longer used.
Assay protocol. An appropriate volume of the liposome stock solutions was diluted to 2 mL with outside buffer in a 10 ×10 mm quartz glass cuvette to afford a phospholipid concentration of 25 µM. […] Subsequentl y, the time-dependent change in fluorescence intensity (C F: λ exc = 492 nm, λ em = 517 nm) was recorded during addition of 20 µL peptide stock solution of var ying concentrations at 60 s and 20µ L of a calibration cocktail (1. 6% […]

[1] = 25 µM lipid, EYPC⊃CF-LUVs, 10 mM Hepes, fractional activity at 590 s, Hill fit, error = SD of fit

| Compound | EC50, CF assay, EYPC [1] | Y30µM, membrane activity, CF assay | EC50 [1] [µM] |
| --- | --- | --- | --- |
| CC[C@H](C)[C@H](NC(=O)[C@H](CCCCN)NC(=O)[C@@H](NC(=O)[C@@H](N)CCC(N)=O)[C@@H](C)CC)C(=O)N[C@@H](Cc1c[nH]c2ccccc12)C(=O)N[C@@H](Cc1ccccc1)C(=O)N[C@@H](CCC(N)=O)C(=O)N[C@@H](CC(N)=O)C(=O)N[C@@H](CCCNC(=N)N)C(=O)N[C@@H](CCCNC(=N)N)C(=O)N[C@@H](CCSC)C(=O)N[C@@H](CCCCN)C(=O)N[C@@H](Cc1c[nH]c2ccccc12)C(=O)N[C@@H](CCCCN)C(=O)N[C@@H](CCCCN)C(=O)O (H-QIKIWFQNRRMKWKK-OH) | too low to determine | 0.14 |  |
| CC(C)C[C@H](NC(=O)[C@H](CC(C)C)NC(=O)[C@H](CCCNC(=N)N)NC(=O)[C@@H](N)CC(C)C)C(=O)N[C@@H](CCCNC(=N)N)C(=O)N[C@@H](Cc1c[nH]c2ccccc12)C(N)=O [LRLLRW] (H-LRLLRW-NH2) |  | 0.23 |  |
| CC(C)[C@H](NC(=O)[C@H](CCCCN)NC(=O)[C@H](CCCNC(=N)N)NC(=O)[C@H](CCCCN)NC(=O)[C@H](CCCCN)NC(=O)[C@H](CCCCN)NC(=O)[C@@H]1CCCN1C(=O)[C@H](CCC(N)=O)NC(=O)[C@H](CO)NC(=O)[C@H](Cc1c[nH]c2ccccc12)NC(=O)[C@H](CC(=O)O)NC(=O)[C@@H](NC(=O)[C@H](Cc1c[nH]c2ccccc12)NC(=O)[C@H](Cc1c[nH]c2ccccc12)NC(=O)[C@@H](NC(=O)[C@H](CC(=O)O)NC(=O)[C@H](Cc1c[nH]c2ccccc12)NC(=O)[C@H](Cc1c[nH]c2ccccc12)NC(=O)[C@@H](NC(=O)[C@H](CC(=O)O)NC(=O)[C@@H](N)CCCCN)[C@@H](C)O)[C@@H](C)O)[C@@H](C)O)C(=O)O [Pep‐1] (H-KDTWWDTWWTDWSQPKKKRKV-OH) |  | 0.46 | 35 ± 1 |
